The results in this text go back to patent publication EP1113726B1, “USE OF NEOHESPERIDIN DIHYDROCHALCONE FOR THE MANUFACTURE OF A MEDICAMENT FOR PREVENTING OR TREATING ELEVATED BLOOD LIPID LEVEL-RELATED DISEASES” (Korea Research Institute of Bioscience and Biotechnology, priority 1998, dated 2000).

The test system of experiment [1] is ACAT. The experiment is described as follows: ACAT assay on liver microsomes of the diet-fed rats. The class given is biochemical. The settings on record: ex vivo: liver microsomes of rats fed 1 % cholesterol plus 0.05 % neohesperidin dihydrochalcone for six weeks, versus Control group. Here is the method:
To determine the effect of feeding neohesperidin dihydrochalcone to rats on the activity of ACAT, microsomes were separated from liver tissues to be used as an enzyme source.
1 g each of the livers taken from each group of rats of Example 2 was homogenized in 5 ml of homogenization medium(0.1 M KH2PO4, pH 7.4, 0.1 mM EDTA and 10 mM β-mercaptoethanol). The homogenate was centrifuged at 3,000xg for 15 min. at 4°C and the supernatant thus obtained was centrifuged at 15,000xg for 15 min. at 4°C to obtain a supernatant. The supernatant was put into an ultracentrifuge tube(Beckman) and centrifuged at 100,000xg for 1 hour at 4°C to obtain microsomal pellets, which were then suspended in 3 ml of the homogenization medium and centrifuged at 100,000xg for 1 hour at 4°C. The pellets thus obtained were suspended in 1 ml of the homogenization medium. The protein concentration of the resulting suspension was determined by Lowry's method and then adjusted to 4 to 8 mg/ml. […]
200 µl of the resulting supernatant was put in a scintillation bottle and 4 ml of scintillation fluid(Lumac) was added thereto. The mixture was assayed for radioactivity with 1450 Microbeta liquid scintillation counter(Wallacoy, Finland). ACAT activity was calculated as picomoles of cholesteryl oleate synthesized per min. per mg protein(pmoles/min/mg protein).
For orientation: Microsomes from liver hold many membrane-bound enzymes, among them those of drug oxidation.

The target in experiment [2] is T1, HMG-CoA reductase (Rattus norvegicus, UniProt P51639).
T1 construct: the supernatant was ultracentrifuged at 100,000xg for 60 minutes to obtain microsomal precipitates; from tissue; host or cells: rat liver microsomes
T1 sequence (P51639 1-887): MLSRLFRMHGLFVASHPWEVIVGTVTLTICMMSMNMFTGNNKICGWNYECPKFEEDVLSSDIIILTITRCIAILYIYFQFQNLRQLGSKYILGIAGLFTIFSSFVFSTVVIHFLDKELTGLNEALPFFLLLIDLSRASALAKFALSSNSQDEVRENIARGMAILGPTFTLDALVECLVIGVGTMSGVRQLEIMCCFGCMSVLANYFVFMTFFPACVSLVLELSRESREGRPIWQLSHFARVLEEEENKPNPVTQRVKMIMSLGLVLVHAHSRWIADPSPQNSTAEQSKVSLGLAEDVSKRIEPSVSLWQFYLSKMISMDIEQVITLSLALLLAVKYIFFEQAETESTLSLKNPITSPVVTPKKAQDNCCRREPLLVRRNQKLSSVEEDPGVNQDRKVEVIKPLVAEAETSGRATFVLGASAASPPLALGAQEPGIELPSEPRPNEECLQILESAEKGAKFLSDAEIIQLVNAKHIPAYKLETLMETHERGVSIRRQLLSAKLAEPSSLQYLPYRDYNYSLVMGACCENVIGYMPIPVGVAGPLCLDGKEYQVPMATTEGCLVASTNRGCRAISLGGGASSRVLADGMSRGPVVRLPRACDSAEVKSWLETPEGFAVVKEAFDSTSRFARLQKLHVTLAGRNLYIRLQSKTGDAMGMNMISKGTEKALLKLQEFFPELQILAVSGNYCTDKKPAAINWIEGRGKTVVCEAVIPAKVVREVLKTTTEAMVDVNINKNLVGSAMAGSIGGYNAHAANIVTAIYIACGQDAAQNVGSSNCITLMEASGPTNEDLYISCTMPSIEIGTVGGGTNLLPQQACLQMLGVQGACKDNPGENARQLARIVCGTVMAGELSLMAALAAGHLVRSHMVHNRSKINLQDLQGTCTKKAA
The experiment is described as follows: HMG-CoA reductase activity assay (modified Hulcher's method) on liver microsomes of the diet-fed rats. It is filed as biochemical. The settings on record: ex vivo: liver microsomes of rats fed 1 % cholesterol plus 0.05 % neohesperidin dihydrochalcone for six weeks, versus Control group. On the procedure: In order to determine the activity of HMG-CoA reductase, Hulcher's method was employed after some modification (see J. Lipid Res., 14, 625-641(1973)). In this method, the concentration of the coenzyme-A(CoA-SH), which is produced when HMG-CoA is reduced to a mevalonate salt by the action of HMG-CoA reductase, is determined by spectroscopy and the activity of HMG-GoA reductase is calculated therefrom.
3 g of liver tissue taken from each group of rats of Example 2 was washed succesively with 100 ml of a cold-saline(0.15M NaCl) and 100ml of a cold buffer solution A(0.1M triethanolamine, HCl/0.2M EDTA/2mM dithiothreitol(DTT)). The cold buffer solution A was added to the liver tissue in an amount of 2 ml per 1 g of the liver tissue and the mixture was homogenized with a homogenizer. The homogenate was centrifuged at 15,000xg for 15 minutes, and then, the supernatant was ultracentrifuged at 100,000xg for 60 minutes to obtain microsomal precipitates. […]
Then, the reactant was mixed with 20µl of DTNB buffer solution(3mM DTNH/0.1M triethanolamine/0.2M EDTA, pH 7.4) and the absorbance of the mixture was determined at 412nm to calculate the amount of CoA-SH(activity of HMG-CoA reductase).
The extent of inhibition of HMG-CoA reductase activity by neohesperidin dihydrochalcone was calculated based on the above result.

On to `COc1ccc(CCC(=O)c2c(O)cc(O[C@@H]3O[C@H](CO)[C@@H](O)[C@H](O)[C@H]3O[C@@H]3O[C@@H](C)[C@H](O)[C@@H](O)[C@H]3O)cc2O)cc1O` [Neohesperidin dihydrochalcone], for which the “%Inhibition on ACAT activity” value in experiment [1] turned out to be 20%. For the same compound, the “Inhibition of HMG-CoA reductase activity (%)” value in experiment [2] came to 30%.
